What all share (assay type): functional
Test [1] has as its system Staphylococcus aureus. Put plainly: Antibacterial activity against Staphylococcus aureus ATCC 25923 assessed as inhibition of bacterial growth by standard broth microdilution susceptibility method. A general note: Dilution methods test growth across graded concentrations, often in twofold steps.
In test [2] the test system is Staphylococcus aureus. Put plainly: Antibacterial activity against methicillin-resistant Staphylococcus aureus ATCC 43300 assessed as inhibition of bacterial growth by standard broth microdilution susceptibility method.
Test [3] has as its system Enterococcus faecalis. Put plainly: Antibacterial activity against VanB-resistant Enterococcus faecalis ATCC 51299 assessed as inhibition of bacterial growth by standard broth microdilution susceptibility method.
A further test has as its system Enterococcus gallinarum. Put plainly: Antibacterial activity against VanC-resistant Enterococcus gallinarum ATCC 700221 assessed as inhibition of bacterial growth by standard broth microdilution susceptibility method.
The subject of test [4] is Enterococcus faecalis. Put plainly: Antibiofilm activity against VanB-resistant Enterococcus faecalis ATCC 51299 assessed as inhibition of biofilm formation in BHIG medium incubated for 24 hrs by resazurin assay. A general note: Resazurin is reduced to fluorescent resorufin, in cell work by metabolically active cells.
The subject of test [5] is Enterococcus faecalis. Kind of test: Antibiofilm activity against VanB-resistant Enterococcus faecalis ATCC 51299 assessed as inhibition of biofilm formation by measuring decrease in RFU in BHIG medium incubated for 24 hrs by resazurin assay.
The test system of test [6] is Enterococcus faecalis. Kind of test: Antibacterial activity against VanB-resistant Enterococcus faecalis ATCC 51299 assessed as inhibition of colony formation in BHIG medium incubated for 24 hrs by resazurin assay.
Test [7] concerns Enterococcus faecalis. Kind of test: Antibacterial activity against VanB-resistant Enterococcus faecalis ATCC 51299 assessed as inhibition of bacterial growth in BHIG medium incubated for 24 hrs by resazurin assay.
Test [8] relates to Staphylococcus aureus. Put plainly: Antibacterial activity against vancomycin-intermediate Staphylococcus aureus ATCC NRS1 assessed as inhibition of bacterial growth by standard broth microdilution susceptibility method.
Test [9] relates to Staphylococcus aureus. Put plainly: Antibacterial activity against heterogenous vancomycin-intermediate Staphylococcus aureus ATCC NRS24 assessed as inhibition of bacterial growth by standard broth microdilution susceptibility method.
A further test relates to Enterococcus faecium. Kind of test: Antibacterial activity against VanA-resistant Enterococcus faecium MMX0485 assessed as inhibition of bacterial growth by standard broth microdilution susceptibility method.
Another test concerns Streptococcus pneumoniae. Kind of test: Antibacterial activity against […] assessed as inhibition of bacterial growth by standard broth microdilution susceptibility method.
In another test the test system is Clostridioides difficile. Put plainly: Antibacterial activity against Clostridium difficile ATCC 43255 assessed as inhibition of bacterial growth by standard broth microdilution susceptibility method.
A further test relates to Moraxella catarrhalis. Put plainly: Antibacterial activity against Moraxella catarrhalis ATCC 8193 assessed as inhibition of bacterial growth by standard broth microdilution susceptibility method.

Values after ≈ are worked out from the molar mass of the structure shown. Bounds are passed on as bounds.

The source of these data is ChEMBL document CHEMBL5143550, “Thiol- and Disulfide-Containing Vancomycin Derivatives Against Bacterial Resistance and Biofilm Formation” (2021).

For orientation: MIC means the lowest concentration that inhibits growth of the organism.

With `CN[C@H](CC(C)C)C(=O)N[C@H]1C(=O)N[C@@H](CC(N)=O)C(=O)N[C@H]2C(=O)N[C@H]3C(=O)N[C@H](C(=O)N[C@H](C(=O)NCCOCCNC(=O)CCCCC4CCSS4)c4cc(O)cc(O)c4-c4cc3ccc4O)[C@H](O)c3ccc(c(Cl)c3)Oc3cc2cc(c3O[C@@H]2O[C@H](CO)[C@@H](O)[C@H](O)[C@H]2O[C@H]2C[C@](C)(N)[C@H](O)[C@H](C)O2)Oc2ccc(cc2Cl)[C@H]1O` (stereo partly drawn), the MIC was 4 µg/mL (≈ 2.32 µM) in the test on Staphylococcus aureus [1], 2 µg/mL (≈ 1.16 µM) in the test with Staphylococcus aureus [2], 4 µg/mL (≈ 2.32 µM) in the test on Enterococcus faecalis [3] and 8 µg/mL (≈ 4.64 µM) in the test on Enterococcus gallinarum. In the test with Enterococcus faecalis [4], the MBIC stood at 8 µg/mL. Moreover, the results for the “inhibition (INH)” value with Enterococcus faecalis [5] and with Enterococcus faecalis [7] were 97% and 100%, respectively. Further, the Activity in the test with Enterococcus faecalis [6] worked out at 8 µg/mL.

Consider `CN[C@H](CC(C)C)C(=O)N[C@H]1C(=O)N[C@@H](CC(N)=O)C(=O)N[C@H]2C(=O)N[C@H]3C(=O)N[C@H](C(=O)N[C@H](C(=O)NCCSSc4ccccn4)c4cc(O)cc(O)c4-c4cc3ccc4O)[C@H](O)c3ccc(c(Cl)c3)Oc3cc2cc(c3O[C@@H]2O[C@H](CO)[C@@H](O)[C@H](O)[C@H]2O[C@H]2C[C@](C)(N)[C@H](O)[C@H](C)O2)Oc2ccc(cc2Cl)[C@H]1O`, for which the MIC with Staphylococcus aureus [1] is 4 µg/mL (≈ 2.47 µM); in the test with Staphylococcus aureus [2], 2 µg/mL (≈ 1.24 µM); in the test with Staphylococcus aureus [8] it was 4 µg/mL (≈ 2.47 µM); with Staphylococcus aureus [9], 4 µg/mL (≈ 2.47 µM); with Enterococcus faecium it was 8 µg/mL (≈ 4.95 µM); in the test with Enterococcus faecalis [3], 16 µg/mL (≈ 9.89 µM). The MIC is 8 µg/mL (≈ 4.95 µM) in the test with Enterococcus gallinarum, 0.5 µg/mL (≈ 0.309 µM) in the test with Streptococcus pneumoniae, 0.5 µg/mL (≈ 0.309 µM) with Clostridioides difficile and more than 32 µg/mL in the test with Moraxella catarrhalis. The MBIC with Enterococcus faecalis [4] came out at 16 µg/mL. Besides, the “inhibition (INH)” value in the test on Enterococcus faecalis [5] stood at 99%; with Enterococcus faecalis [7], 100%. Moreover, the Activity in the test on Enterococcus faecalis [6] is 16 µg/mL.

Turning to `CCSSCCNC(=O)[C@H]1NC(=O)[C@H]2NC(=O)[C@H](NC(=O)[C@@H]3NC(=O)[C@H](CC(N)=O)NC(=O)[C@H](NC(=O)[C@@H](CC(C)C)NC)[C@H](O)c4ccc(c(Cl)c4)Oc4cc3cc(c4O[C@@H]3O[C@H](CO)[C@@H](O)[C@H](O)[C@H]3O[C@H]3C[C@](C)(N)[C@H](O)[C@H](C)O3)Oc3ccc(cc3Cl)[C@H]2O)c2ccc(O)c(c2)-c2c(O)cc(O)cc21`, the MIC in the test with Staphylococcus aureus [1] turned out to be 1 µg/mL (≈ 0.638 µM); in the test on Staphylococcus aureus [2], 1 µg/mL (≈ 0.638 µM); in the test with Enterococcus faecalis [3] it was 1 µg/mL (≈ 0.638 µM); in the test on Enterococcus gallinarum, 8 µg/mL (≈ 5.1 µM). Further, the MBIC with Enterococcus faecalis [4] was found to be 32 µg/mL. The “inhibition (INH)” value in the test on Enterococcus faecalis [5] and with Enterococcus faecalis [7] was 100% each time. In addition, the Activity in the test with Enterococcus faecalis [6] is 32 µg/mL.

Take `CN[C@H](CC(C)C)C(=O)N[C@H]1C(=O)N[C@@H](CC(N)=O)C(=O)N[C@H]2C(=O)N[C@H]3C(=O)N[C@H](C(=O)N[C@H](C(=O)NCCCCCCCCS)c4cc(O)cc(O)c4-c4cc3ccc4O)[C@H](O)c3ccc(c(Cl)c3)Oc3cc2cc(c3O[C@@H]2O[C@H](CO)[C@@H](O)[C@H](O)[C@H]2O[C@H]2C[C@](C)(N)[C@H](O)[C@H](C)O2)Oc2ccc(cc2Cl)[C@H]1O`: the MIC amounted to 4 µg/mL (≈ 2.51 µM) in the test with Staphylococcus aureus [1]; 4 µg/mL (≈ 2.51 µM) in the test with Staphylococcus aureus [2]; 2 µg/mL (≈ 1.26 µM) in the test with Staphylococcus aureus [8]; 2 µg/mL (≈ 1.26 µM) in the test on Staphylococcus aureus [9]; 2 µg/mL (≈ 1.26 µM) in the test on Enterococcus faecium; 8 µg/mL (≈ 5.02 µM) in the test with Enterococcus faecalis [3]. The MIC in the test with Enterococcus gallinarum was found to be 8 µg/mL (≈ 5.02 µM); with Streptococcus pneumoniae, 0.5 µg/mL (≈ 0.314 µM); in the test with Clostridioides difficile, 4 µg/mL (≈ 2.51 µM); with Moraxella catarrhalis it was 8 µg/mL (≈ 5.02 µM). Besides, the MBIC in the test with Enterococcus faecalis [4] amounted to 8 µg/mL. The “inhibition (INH)” value was determined as 98% in the test on Enterococcus faecalis [5] and 100% with Enterococcus faecalis [7]. For the same molecule, the Activity in the test on Enterococcus faecalis [6] is 8 µg/mL.

On to `CN[C@H](CC(C)C)C(=O)N[C@H]1C(=O)N[C@@H](CC(N)=O)C(=O)N[C@H]2C(=O)N[C@H]3C(=O)N[C@H](C(=O)N[C@H](C(=O)NCCSSCCNC(=O)CCCCC4CCSS4)c4cc(O)cc(O)c4-c4cc3ccc4O)[C@H](O)c3ccc(c(Cl)c3)Oc3cc2cc(c3O[C@@H]2O[C@H](CO)[C@@H](O)[C@H](O)[C@H]2O[C@H]2C[C@](C)(N)[C@H](O)[C@H](C)O2)Oc2ccc(cc2Cl)[C@H]1O` (stereo partly drawn), for which the MIC in the test on Staphylococcus aureus [1] is 2 µg/mL (≈ 1.13 µM); with Staphylococcus aureus [2], 2 µg/mL (≈ 1.13 µM); in the test with Staphylococcus aureus [8], 2 µg/mL (≈ 1.13 µM); in the test with Staphylococcus aureus [9] it was 2 µg/mL (≈ 1.13 µM); with Enterococcus faecium it was more than 32 µg/mL; with Enterococcus faecalis [3] it was 4 µg/mL (≈ 2.26 µM). For the same molecule, the MIC in the test with Enterococcus gallinarum was 8 µg/mL (≈ 4.52 µM); with Streptococcus pneumoniae, 0.25 µg/mL (≈ 0.141 µM); with Clostridioides difficile it was 0.5 µg/mL (≈ 0.282 µM); in the test on Moraxella catarrhalis it was 8 µg/mL (≈ 4.52 µM). Moreover, the MBIC in the test with Enterococcus faecalis [4] is 16 µg/mL. The “inhibition (INH)” value in the test on Enterococcus faecalis [5] and in the test on Enterococcus faecalis [7] was 100% in each case. The Activity in the test on Enterococcus faecalis [6] came to 16 µg/mL.

`CN[C@H](CC(C)C)C(=O)N[C@H]1C(=O)N[C@@H](CC(N)=O)C(=O)N[C@H]2C(=O)N[C@H]3C(=O)N[C@H](C(=O)N[C@H](C(=O)NCCSSCCNC(=O)CCS)c4cc(O)cc(O)c4-c4cc3ccc4O)[C@H](O)c3ccc(c(Cl)c3)Oc3cc2cc(c3O[C@@H]2O[C@H](CO)[C@@H](O)[C@H](O)[C@H]2O[C@H]2C[C@](C)(N)[C@H](O)[C@H](C)O2)Oc2ccc(cc2Cl)[C@H]1O`: the MIC in the test on Staphylococcus aureus [1] came to 0.5 µg/mL (≈ 0.299 µM); in the test with Staphylococcus aureus [2], 0.5 µg/mL (≈ 0.299 µM); with Staphylococcus aureus [8] it was 1 µg/mL (≈ 0.598 µM); in the test on Staphylococcus aureus [9], 1 µg/mL (≈ 0.598 µM); in the test on Enterococcus faecium, 8 µg/mL (≈ 4.79 µM); in the test with Enterococcus faecalis [3], 2 µg/mL (≈ 1.2 µM). Also, the MIC worked out at 4 µg/mL (≈ 2.39 µM) in the test with Enterococcus gallinarum, 0.25 µg/mL (≈ 0.15 µM) with Streptococcus pneumoniae, 1 µg/mL (≈ 0.598 µM) with Clostridioides difficile and 2 µg/mL (≈ 1.2 µM) in the test with Moraxella catarrhalis. Also, in the test with Enterococcus faecalis [4], the MBIC was 8 µg/mL. Also, the “inhibition (INH)” value in the test on Enterococcus faecalis [5] is 97%; with Enterococcus faecalis [7], 100%. Moreover, in the test with Enterococcus faecalis [6], the Activity turned out to be 8 µg/mL.

Consider `CN[C@H](CC(C)C)C(=O)N[C@H]1C(=O)N[C@@H](CC(N)=O)C(=O)N[C@H]2C(=O)N[C@H]3C(=O)N[C@H](C(=O)N[C@H](C(=O)NCCSSCCN)c4cc(O)cc(O)c4-c4cc3ccc4O)[C@H](O)c3ccc(c(Cl)c3)Oc3cc2cc(c3O[C@@H]2O[C@H](CO)[C@@H](O)[C@H](O)[C@H]2O[C@H]2C[C@](C)(N)[C@H](O)[C@H](C)O2)Oc2ccc(cc2Cl)[C@H]1O`, for which the MIC with Staphylococcus aureus [1] was determined as 1 µg/mL (≈ 0.631 µM); with Staphylococcus aureus [2], 1 µg/mL (≈ 0.631 µM); in the test with Staphylococcus aureus [8] it was 1 µg/mL (≈ 0.631 µM); with Staphylococcus aureus [9] it was 1 µg/mL (≈ 0.631 µM); with Enterococcus faecium it was 8 µg/mL (≈ 5.05 µM); in the test on Enterococcus faecalis [3], 8 µg/mL (≈ 5.05 µM). Also, the MIC is 8 µg/mL (≈ 5.05 µM) with Enterococcus gallinarum, not above 0.03 µg/mL in the test on Streptococcus pneumoniae, 0.5 µg/mL (≈ 0.316 µM) in the test on Clostridioides difficile and more than 32 µg/mL with Moraxella catarrhalis. Also, in the test on Enterococcus faecalis [4], the MBIC is 16 µg/mL. The “inhibition (INH)” value with Enterococcus faecalis [5] was 86%; in the test on Enterococcus faecalis [7], 98%. For the same molecule, the Activity with Enterococcus faecalis [6] was determined as 16 µg/mL.

Consider `CN[C@H](CC(C)C)C(=O)N[C@H]1C(=O)N[C@@H](CC(N)=O)C(=O)N[C@H]2C(=O)N[C@H]3C(=O)N[C@H](C(=O)N[C@H](C(=O)O)c4cc(O)cc(O)c4-c4cc3ccc4O)[C@H](O)c3ccc(c(Cl)c3)Oc3cc2cc(c3O[C@@H]2O[C@H](CO)[C@@H](O)[C@H](O)[C@H]2O[C@H]2C[C@](C)(N)[C@H](O)[C@H](C)O2)Oc2ccc(cc2Cl)[C@H]1O` [VANCOMYCIN], for which the MIC with Staphylococcus aureus [8] was 8 µg/mL (≈ 5.52 µM); with Staphylococcus aureus [9], 16 µg/mL (≈ 11 µM); with Enterococcus faecium it was more than 128 µg/mL; in the test on Enterococcus faecalis [3], 16 µg/mL (≈ 11 µM); in the test with Enterococcus gallinarum, 8 µg/mL (≈ 5.52 µM); with Streptococcus pneumoniae, 0.12 µg/mL (≈ 0.0828 µM). Moreover, the results for the MIC in the test with Clostridioides difficile and with Moraxella catarrhalis were 0.12 µg/mL (≈ 0.0828 µM) and more than 32 µg/mL, respectively. In addition, the MBIC with Enterococcus faecalis [4] came to 64 µg/mL. In addition, the “inhibition (INH)” value in the test on Enterococcus faecalis [5] came to 98%; in the test on Enterococcus faecalis [7], 100%. Besides, the Activity in the test on Enterococcus faecalis [6] came to 64 µg/mL.
